Tested on: patients with probable PSP Richardson's syndrome
Assay: Phase 2 clinical trial in progressive supranuclear palsy (Example 6)
Assay type: in vivo, human
Conditions: 300 mg or 150 mg TID PO, clinical study protocol
Description: CLINICAL STUDY PROTOCOL: A Randomized, Double-blind, Placebo-Controlled Study to Evaluate the Efficacy and Safety of compound of formula (I) for the Treatment of Progressive Supranuclear Palsy
PRIMARY OBJECTIVE: To evaluate the safety and tolerability of two different doses of compound (I) compared with placebo for the treatment of PSP
STUDY DESIGN: This is a randomized, multi-centre, double-blind, placebo-controlled trial to study the safety and tolerability of compound (I) in patients with probable PSP Richardson's syndrome. Approximately 40 patients (40 to 85 years of age, inclusive) are randomized in a 2:1:1 ratio to 300 mg or 150 mg or placebo TID PO with meals.
For all subjects, a screening visit is performed up to 6 weeks prior to dosing to determine eligibility. Eligible patients take investigational product (compound (I) or placebo) orally daily for about 12 weeks. Safety and tolerability data are collected at required visits to the study site. In addition, an “at home visit” for safety assessment and blood draw is organized. An open-label extension period of 52 weeks takes place upon completion of the initial double-blind treatment period. […]
PRIMARY SAFETY ENDPOINT: Frequency of treatment-emergent adverse events recorded in the three treatment arms at Week 12.

CC(=O)Nc1nnc(N2CCN([C@@H](C)c3ccc4c(c3)OCO4)CC2)s1 [Compound (I)]
safety and tolerability of the preferred dosage regimen: especially safe and well tolerated

Source: patent US20240285615A1, “MEDICAMENTS COMPRISING GLYCOSIDASE INHIBITORS” (priority 2021, published 2024)
